# From BindingDB's records for doi:10.1021/bi030031h (Medical College of Ohio, 2003)
# Biological target: T1, Glycine--tRNA ligase (Bombyx mori, UniProt Q04451)
# T1 sequence (Q04451 whole entry): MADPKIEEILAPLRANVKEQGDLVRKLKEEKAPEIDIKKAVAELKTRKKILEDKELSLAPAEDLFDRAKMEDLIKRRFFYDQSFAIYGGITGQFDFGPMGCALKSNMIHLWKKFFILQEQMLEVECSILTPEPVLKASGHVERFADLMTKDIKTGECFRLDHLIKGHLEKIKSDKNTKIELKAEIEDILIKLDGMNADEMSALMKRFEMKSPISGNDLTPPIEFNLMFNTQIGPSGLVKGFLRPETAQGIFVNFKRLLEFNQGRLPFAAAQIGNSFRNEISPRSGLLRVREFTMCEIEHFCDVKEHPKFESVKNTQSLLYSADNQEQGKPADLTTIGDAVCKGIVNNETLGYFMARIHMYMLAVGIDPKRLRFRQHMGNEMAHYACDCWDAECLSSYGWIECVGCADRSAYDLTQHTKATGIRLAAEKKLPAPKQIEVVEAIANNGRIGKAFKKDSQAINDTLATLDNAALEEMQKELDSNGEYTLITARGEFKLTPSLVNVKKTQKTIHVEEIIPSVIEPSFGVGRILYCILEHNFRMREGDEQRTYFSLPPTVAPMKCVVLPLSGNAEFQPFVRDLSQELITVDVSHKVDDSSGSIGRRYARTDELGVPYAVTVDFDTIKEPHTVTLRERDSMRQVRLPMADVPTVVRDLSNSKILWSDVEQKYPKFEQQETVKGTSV
# Test: In Vitro Enzyme Activity Assay
# Settings: pH 7.5; 25 °C
# Excerpt: Aminoacyl-tRNA synthetase assays were measuring the incorporation of [14C] amino acid into tRNA.
Kd [µM],Structure (SMILES),IC50 [µM],Ki [µM]
–,Nc1ncnc2c1ncn2[C@@H]1O[C@H](COP(=O)(O)OP(=O)(O)OP(=O)(O)O)[C@@H](O)[C@H]1O,100,13
0.27,NCC(=O)NS(=O)(=O)OC[C@H]1O[C@@H](n2cnc3c(N)ncnc32)[C@H](O)[C@@H]1O [5-O-[N-(L-glycyl)sulfamoyl]adenosine],2,0.05
–,Nc1ncnc2c1ncn2[C@@H]1O[C@H](COP(=O)(O)OP(=O)(O)NP(=O)(O)O)[C@@H](O)[C@H]1O [AMP.P[NH]P],100,20
–,Nc1ncnc2c1ncn2[C@@H]1O[C@H](COP(=O)(O)O)[C@@H](O)[C@H]1O [adenosine 5 -monophosphate],800,80
–,Nc1ncnc2c1ncn2[C@@H]1O[C@H](COP(=O)(O)OP(=O)(O)CP(=O)(O)O)[C@@H](O)[C@H]1O [adenylylmethylenediphosphonate],10,0.8
–,"Nc1ncnc2c1ncn2[C@@H]1O[C@H](COP(=O)(O)CP(=O)(O)O)[C@@H](O)[C@H]1O [alpha, beta-methyleneadenosine 5 -diphosphate]",600,60
